Data from US20140299020A1, “WATER-BASED BLACK INK COMPOSITION, INKJET RECORDING METHOD USING SAME, AND COLORED BODY” (NIPPON KAYAKU KABUSHIKI KAISHA, priority 2011, published 2014).

Test: Solubility with respect to water at room temperature
Format: physicochemical
Settings: lithium salt

solubility	Compound
≥ 100 mg/mL	Nc1c(N=Nc2ccc3c(O)c(N=Nc4ccc(N=Nc5ccc(S(=O)(=O)O)cc5)cc4S(=O)(=O)O)c(S(=O)(=O)O)cc3c2S(=O)(=O)O)cc(S(=O)(=O)O)c2cc(S(=O)(=O)O)c(N=Nc3ccc([N+](=O)[O-])cc3S(=O)(=O)O)c(O)c12 [Compound 1]
≥ 100 mg/mL	Nc1c(N=Nc2ccc3c(O)c(N=Nc4ccc(N=Nc5ccc(S(=O)(=O)O)cc5)cc4S(=O)(=O)O)c(S(=O)(=O)O)cc3c2S(=O)(=O)O)cc(S(=O)(=O)O)c2cc(S(=O)(=O)O)c(N=Nc3ccc(S(=O)(=O)O)cc3[N+](=O)[O-])c(O)c12 [Compound 3]

Compound	solubility
Cc1cc(N=Nc2c(S(=O)(=O)O)cc3c(S(=O)(=O)O)c(N=Nc4cc(S(=O)(=O)O)c5cc(S(=O)(=O)O)c(N=Nc6ccc([N+](=O)[O-])cc6S(=O)(=O)O)c(O)c5c4N)ccc3c2O)c(OCCCS(=O)(=O)O)cc1N=Nc1ccc([N+](=O)[O-])cc1S(=O)(=O)O [Compound 16]	≥ 100 mg/mL
